Test results reported in US20160130443A1, “PHTHALOCYANINE DYE USED FOR COLOR FILTER OF A LCD” (DOW GLOBAL TECHNOLOGIES LLC, priority 2013, published 2016).

Columns and labels:
Type in all cases: physicochemical
[1] = Solubility of dye in organic solvent at 25° C.
[2] = Thermal stability of dyes (mass loss measured by TGA); details: air atmosphere
Protocol: (1) Thermal Stability of Dyes (Mass Loss Measured by TGA):
The thermal stability of dye itself was determined by the mass loss of dye measured by TGA under air atmosphere at 230° C. for 1 hour. This evaluation reflects chemical stability of the dye itself

[3] = Thermal stability of films (chromaticity difference before and after hard baking); details: for Thermal stability of a film at 230° C. (ΔEab): film with acrylic resin baked at 230° C. under air for 1 hour, smaller = better heat resistance; for Thermal stability (in words): summary referring to Table 1
Protocol: The obtained dry film was baked at 230° C. under air for 1 hour to evaluate thermal stability of the film. Optical performance before and after baking (ΔEab value) was 1.6. A smaller ΔEab value indicates better heat resistance.
(4) Thermal Stability of Films (Chromaticity):
The wet film after spin coating is dried in oven at 90° C. for 30 minutes and then soft baked at 150° C. for 15 minutes. The chromaticity coordinates (L, a, b) are recorded with UltraScan Pro (Hunterlab) colorimeter. D65 light source is used and results are based on CIE Lab coordinates. After that the film is hard baked at target temperature (230° C.) for 1 hour and the new chromaticity coordinates (L′, a′, b′) are recorded with the method above. The thermal stability of a film is indicated by the difference of chromaticity coordinate before and after hard baking represented by the following formula;
ΔE=√{square root over ((L−L′)^2+(a−a′)^2+(b−b′)^2)}

Compound | Solubility in PGMEA at 25° C. (wt %) [1] | Solubility in cyclohexanone at 25° C. (wt %) [1] | Solubility in cyclohexanone and PGMEA (in words) ([1]; summary referring to Table 1) | Mass loss measured by TGA at 230° C. for 1 hour (%) [2] [%] | Thermal stability of a film at 230° C. (ΔEab) [3] | Thermal stability (in words) [3]
c1ccc2c(c1)C1=Nc3c4ccccc4c4[n]3[Cu-2]35[n]6c(c7ccccc7c6=NC6=[N+]3C(=N4)c3ccccc36)=NC2=[N+]15 [compound 4] | insoluble | insoluble | insoluble | 0.02 | – | –
CCCCOc1ccc(OCCCC)c2c1-c1nc-2nc2[nH]c(nc3nc(nc4[nH]c(n1)c1c(OCCCC)ccc(OCCCC)c41)-c1c(OCCCC)ccc(OCCCC)c1-3)c1c(OCCCC)ccc(OCCCC)c21 [compound 3] | 0.17 wt % | 9.0 wt % | – | 13.08 | 21.5 | very poor thermal stability
C.I. disperse red 343 [compound 2] | 1.98 wt % | 4.0 wt % | – | 9.56 | 13.3 | very poor thermal stability
CNc1ccc(Nc2cccc(C)c2)c2c1C(=O)c1ccccc1C2=O [compound 1, C.I. solvent blue 63] | 1.23 wt % | 3.0 wt % | – | 14.04 | 18.4 | very poor thermal stability
